Reference: the METLIN SMRT retention time set (Domingo-Almenara et al. 2019)

Test: gradient 5% acetonitrile 3 min, to 50% in 2 min, to 85% in 15 min, held 3 min, 100 µL/min
Conditions: column: Zorbax Extend-C18 2.1 x 50 mm; eluents: water / acetonitrile, 0.1% formic acid
Method in brief: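 Pure standards were run in mixtures of ~100 molecules by HPLC coupled to a quadrupole time-of-flight mass spectrometer. The column was a Zorbax Extend-C18 (2.1 × 50 mm, 1.8 μm) at 100 μL/min, with water and acetonitrile each containing 0.1% formic acid, in positive and negative ionization mode. Dead and dwell volumes were 40 μL and 900 μL. Retention time was taken from computationally picked adduct peaks, each manually inspected, with data collected over 3 months.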

Row | RP-LC retention time [s] | Structure (SMILES)
1 | 593 | CC1CCCCN1CCN(CCC(=O)N1CCNCC1)C(=O)c1ccc(C(C)(C)C)cc1 (configuration not stated)
2 | 706 | COc1cccc(OC)c1C(=O)Nc1ccc2c(c1)Sc1ncccc1C(=O)N2C
3 | 615 | O=C(NC1CC1)c1ccccc1OCC1CCCN(Cc2cn[nH]c2-c2cccs2)C1 (configuration not stated)
4 | 952 | Cc1nc(-c2csc(S(=O)(=O)N3CCCC(C(=O)Nc4ccc(F)cc4F)C3)c2)no1 (configuration not stated)
5 | 1230 | COc1ccc(OC)c(NC(=O)c2csc(-c3ccc(C)n3C)n2)c1
6 | 706 | Cc1ccc(F)cc1NS(=O)(=O)c1cc(-c2[nH]ncc2C(=O)N(C)C)oc1C
7 | 602 | COC[C@@H]1CN(Cc2ccccn2)C[C@H]1c1nc(C2CC2)no1
8 | 958 | O=C(Nc1ccc(F)cc1F)C1CCCN(C(=O)Cc2cccc3ccccc23)C1 (configuration not stated)
9 | 998 | CCOC(=O)Cc1csc(NC(=O)CSc2nc(C)nc3sc4c(c23)CCC4)n1
10 | 652 | CCOCCCNC(=O)N1CCC2(CC1)NC(=O)c1ccccc1O2
11 | 878 | CCN1C(=O)COc2ccc(-c3noc(C4CC(=O)N(c5ccc(C)cc5)C4)n3)cc21 (configuration not stated)
12 | 704 | Cc1ccc(NC(=O)Nc2nc(C(=O)N3CCN(C(=O)c4ccco4)CC3)cs2)cc1
13 | 741 | O=C(c1cccs1)N1CCC2(CC1)NC(=O)N(Cc1ccccc1)C2=O
14 | 750 | CCSc1nnc(-c2nn(C)c3c2CN(S(=O)(=O)CC)CC3)n1CC
15 | 582 | O=C(NCCCN1CCCC1=O)C1CCN(c2cncnc2N2CCCCC2)CC1
16 | 755 | OC(CNCc1ccc(-c2ccc(Br)cc2)o1)c1ccccc1 (configuration not stated)
17 | 822 | O=C(c1cc(-c2ccco2)on1)N1CCC2(CC1)OCCS2
18 | 608 | Cc1cnc(C2CN(C3CCCCCC3)C2)n1Cc1cccnc1

Row | RP-LC retention time [s] | Structure (SMILES)
19 | 640 | CCCn1c(=O)sc2cc(S(=O)(=O)N3CCC(C(=O)N4CCN(CC)CC4)CC3)ccc21
20 | 640 | O=C(CC1CCN(C(=O)c2ccc3oc(C4CC4)nc3c2)CC1)NCC1CCCO1 (configuration not stated)
21 | 819 | CC(C)CCNC(=O)C12CCCC=C1N(c1ccccc1)C(=O)CC2 (configuration not stated)
22 | 974 | COc1ccc(-c2noc(CN3N=NC4C(=O)N(c5ccc(C)c(Cl)c5)C(=O)C43)n2)c(OC)c1 (configuration not stated)
23 | 1370 | Cc1ccc2c(Nc3ccc(S(N)(=O)=O)cc3)c(C(=O)N3CCSCC3)cnc2n1
24 | 577 | Cc1ccc(NC(=O)Cn2c(N)nc(C)cc2=O)cc1
25 | 583 | Cc1ccc(-c2cn3cc(C(=O)N4CCCN(C)CC4)ccc3n2)cc1C
26 | 538 | O=C(NC1CC1)C1CCCN(C(=O)c2cc(-c3ccncc3)n[nH]2)C1 (configuration not stated)
27 | 774 | CC(=O)N1CCc2ccc(NC(=O)c3cccc(Br)c3)cc21
28 | 857 | CCOC(=O)c1c(S(=O)(=O)N2CCC(C(=O)Nc3ccc(OC)cc3)CC2)c(C)n(CC)c1C
29 | 1220 | CCOC(=O)c1cc([N+](=O)[O-])sc1NC(=O)c1c(-c2ccccc2Cl)noc1C
30 | 625 | CCOCCCNC(=O)C1CCCN(c2nc3ccc(Br)cc3[nH]2)C1 (configuration not stated)
31 | 949 | COC(=O)C(C)Sc1nc2c(c(=O)n1-c1ccc(OC(F)(F)F)cc1)SCC2 (configuration not stated)
32 | 1010 | CCNC(=O)NC1CCN(c2nc3cccnc3n(Cc3ccc(C)cc3)c2=O)CC1
33 | 776 | Cc1ccc(C2=NC3(CCN(C(=O)c4ccc(C#N)cc4)CC3)ON2)cc1
34 | 578 | O=C(COc1ccc(F)cc1)NCC1CCC(c2nc3ccccc3[nH]2)CC1 (configuration not stated)
35 | 626 | O=C(Cc1csc(NC(=O)c2ccc[nH]c2=O)n1)NCc1cccs1
36 | 1010 | Cc1nc(-n2nc(C)c(CC(=O)N3CCCCCC3)c2C)sc1C

Row | Structure (SMILES) | RP-LC retention time [s]
37 | Fc1cccc(F)c1C1SCc2nc3ccccc3n21 (configuration not stated) | 797
